What was measured:
Format in all cases: cell-based
[1] = system: colorectal cancer cell COLO205 (expressing BRAF-V600E mutant kinase); experiment: Effect on proliferation of cancer cells, Cell Titer-Glo, 72 hours; conditions: Homo sapiens, COLO 205
Method: (§1) The compounds of the present invention were tested for their effect on growth of cancer cells (Table 2), to further evaluate the compounds herein for their inhibitory effect on proliferation of cancer cells and their selectivity in inhibiting proliferation of cancer cells.
(§2) The cells were incubated for 72 hours. The number of viable cells was detected with a Cell Titer-Glo (Promega, USA) Cell Viability Assay Kit by quantifying the ATP in viable cells. The values of GI50 (unit) of the compounds of the present invention against each of the test cells were determined.

[2] = system: melanoma cell A375 (expressing BRAF-V600E mutant kinase); experiment: as above; conditions: Homo sapiens, A-375
Method: as §1, §2

[3] = system: mouse BaF3-FL-BRAF-V600E (stably expressing full-length BRAF-V600E mutant kinase); experiment: as above
Method: as §1, §2

[4] = Effect on proliferation of cells, Cell Titer-Glo, 72 hours; conditions: Mus musculus, BaF3 cells
Method: The compounds of the present invention were tested for their effect on growth of cancer cells (Table 2), to further evaluate the compounds herein for their inhibitory effect on proliferation of cancer cells and their selectivity in inhibiting proliferation of cancer cells. […]
as §2, with “In the example, solutions of the test compound in DMSO at different concentrations (0.000508 μM, 0.00152 μM, 0.00457 μM, 0.0137 μM, 0.0411 μM, 0.123 μM, 0.370 μM, 1.11 μM, 3.33 μM, 10 μM) was added to the above cells respectively. The cells” for “The cells”

SMILES	GI50 [1] [nM]	GI50 [2] [nM]	GI50 [3] [nM]	GI50 [4] [nM]
Cc1ccc(NC(=O)c2cccc(C(C)(C)C#N)c2)cc1-n1cc(-c2cnccc2OC2CCOCC2)cn1 [Example 56, 3-(2-cyanoprop-2-yl)-N-(4-methyl-3-(4-(4-((tetrahydro-2H-pyran-4-yl)oxy)pyrid-3-yl)-1H-pyrazol-1-yl)phenyl)benzamide]	119	77	< 0.3	4100
Cc1ccc(NC(=O)c2cccc(C(C)(C)C#N)c2)cc1-n1cc(-c2cncc(-c3ccc(N4CCN(C)CC4)cc3)c2)cn1 [Example 30, N-(4-methyl-3-(4-(5-(4-(4-methylpiperazin-1-yl)phenyl)pyrid-3-yl)-1H-pyrazol-1-yl)phenyl)-3-(2-cyanoprop-2-yl)benzamide]	52	47	10	–
Cc1ccc(NC(=O)c2cccc(C(C)(C)C#N)c2)cc1-n1cc(-c2cnccc2OC2COC2)cn1 [Example 79, 3-(2-cyanoprop-2-yl)-N-(4-methyl-3-(4-(4-(oxetan-3-yloxy)pyrid-3-yl)-1H-pyrazol-1-yl)phenyl)benzamide]	57	61	< 0.3	4800
Cc1ccc(NC(=O)c2cccc(C(C)(C)C#N)c2)cc1-n1cc(-c2cnccc2OCC2CCOCC2)cn1 [Example 72, 3-(2-cyanoprop-2-yl)-N-(4-methyl-3-(4-(4-((tetrahydro-2H-pyran-4-yl)methoxy)pyrid-3-yl)-1H-pyrazol-1-yl)phenyl)benzamide]	100	34	5.6	5800
Cc1ccc(NC(=O)c2cccc(C(F)(F)F)c2)cc1-n1cc(-c2cncc(OCCCN3CCOCC3)c2)cn1 [Example 48, N-(4-methyl-3-(4-(5-(3-morpholinopropoxy)pyrid-3-yl)-1H-pyrazol-1-yl)phenyl)-3-(trifluoromethyl)benzamide]	32	14	4.1	520
Cc1ccc(NC(=O)c2cccc(C(C)(C)C#N)c2)cc1-n1cc(-c2cncc(OCC3CCOC3)c2)cn1 (stereo not drawn) [Example 65, 3-(2-cyanoprop-2-yl)-N-(4-methyl-3-(4-(5-((tetrahydrofuran-3-yl)methoxy)pyrid-3-yl)-1H-pyrazol-1-yl)phenyl)benzamide]	35	16	1.3	1700
Cc1ccc(NC(=O)c2ccc(C)c(C(F)(F)F)c2)cc1-n1cc(-c2cncc(-c3ccncc3)c2)cn1 [Example 7, N-(3-(4-([3,4′-bipyridyl]-5-yl)-1H-pyrazol-1-yl)-4-methylphenyl)-4-methyl-3-(trifluoromethyl)benzamide]	150	86	12	2400
Cc1ccc(NC(=O)c2cccc(C(C)(C)C#N)c2)cc1-n1cc(-c2cncc(OCCCN3CCOCC3)c2)cn1 [Example 47, 3-(2-cyanoprop-2-yl)-N-(4-methyl-3-(4-(5-(3-morpholinopropoxy)pyrid-3-yl)-1H-pyrazol-1-yl)phenyl)benzamide]	15	17	1.3	600
Cc1ccc(NC(=O)Cc2cccc(C(F)(F)F)c2)cc1-n1cc(-c2cncc(OCCCN3CCOCC3)c2)cn1 [Example 49, N-(4-methyl-3-(4-(5-(3-morpholinopropoxy)pyrid-3-yl)-1H-pyrazol-1-yl)phenyl)-2-(3-(trifluoromethyl)phenyl)acetamide]	52	41	7.2	500
Cc1ccc(NC(=O)c2ccc(CN3CCN(C)CC3)c(C(F)(F)F)c2)cc1-n1cc(-c2cncc(-c3ccncc3)c2)cn1 [Example 8, N-(3-(4-([3,4′-bipyridyl]-5-yl)-1H-pyrazol-1-yl)-4-methylphenyl)-4-((4-methylpiperazin-1-yl)methyl)-3-(trifluoromethyl)benzamide]	28	27	10	310
Cc1ccc(NC(=O)c2ccc(CN3CCN(C)CC3)c(C(F)(F)F)c2)cc1-n1cc(-c2cncc(N3CCOCC3)c2)cn1 [Example 12, N-(4-methyl-3-(4-(5-morpholinopyrid-3-yl)-1H-pyrazol-1-yl)phenyl)-4-((4-methylpiperazin-1-yl)methyl)-3-(trifluoromethyl)benzamide]	45	97	7.4	210
Cc1ccc(NC(=O)c2cccc(C(C)(C)C#N)c2)cc1-n1cc(-c2cncc(-c3cccnc3)c2)cn1 [Example 3, N-(3-(4-([3,3′-bipyridyl]-5-yl)-1H-pyrazol-1-yl)-4-methylphenyl)-3-(2-cyanoprop-2-yl)benzamide]	10	21	< 0.3	1000
Cc1ccc(NC(=O)c2ccc3cccnc3c2)cc1-n1cc(-c2cnc3[nH]ccc3c2)cn1 [Example 182, N-(3-(4-(1H-pyrrolo[2,3-b]pyrid-5-yl)-1H-pyrazol-1-yl)-4-methylphenyl)quinoline-7-carboxamide]	400	500	–	2000
Cc1ccc(NC(=O)c2cccc(C(F)(F)F)c2)cc1-n1cc(-c2cnccc2OC2CCOC2)cn1 (stereo not drawn) [Example 69, N-(4-methyl-3-(4-(4-((tetrahydrofuran-3-yl)oxy)pyrid-3-yl)-1H-pyrazol-1-yl)phenyl)-3-(trifluoromethyl)benzamide]	61	35	16	1200
Cc1ccc(NC(=O)Cc2cccc(C(F)(F)F)c2)cc1-n1cc(-c2cncc(-c3ccncc3)c2)cn1 [Example 71, N-(3-(4-([3,4′-bipyrid]-5-yl)-1H-pyrazol-1-yl)-4-methylphenyl)-2-(3-(trifluoromethyl)phenyl)acetamide]	56	79	28	1100
Cc1ccc(NC(=O)c2cccc(C(F)(F)F)c2)cc1-n1cc(-c2cnccc2OC2COC2)cn1 [Example 82, N-(4-methyl-3-(4-(4-(oxetan-3-yloxy)pyrid-3-yl)-1H-pyrazol-1-yl)phenyl)-3-(trifluoromethyl)benzamide]	83	97	4	3200
Cc1ccc(NC(=O)c2cccc(C(C)(C)C#N)c2)cc1-n1cc(-c2cnccc2OCC2COC2)cn1 [Example 87, 3-(2-cyanoprop-2-yl)-N-(4-methyl-3-(4-(4-(oxetan-3-ylmethoxy)pyrid-3-yl)-1H-pyrazol-1-yl)phenyl)benzamide]	65	36	< 0.3	2500
Cc1ccc(NC(=O)c2ccc(CN3CCN(C)CC3)c(C(F)(F)F)c2)cc1-n1cc(-c2cnc3[nH]ccc3c2)cn1 [Example 168, N-(3-(4-(1H-pyrrolo[2,3-b]pyrid-5-yl)-1H-pyrazol-1-yl)-4-methylphenyl)-4-((4-methylpiperazin-1-yl)methyl)-3-(trifluoromethyl)benzamide]	28	46	–	3300
Cc1ccc(NC(=O)c2cccc(C(C)C#N)c2)cc1-n1cc(-c2cnc3[nH]ccc3c2)cn1 (stereo not drawn) [Example 179, N-(3-(4-(1H-pyrrolo[2,3-b]pyrid-5-yl)-1H-pyrazol-1-yl)-4-methylphenyl)-3-(1-cyanoethyl)benzamide]	140	250	–	3600
Cc1ccc(NC(=O)c2cc(C(C)(C)C)on2)cc1-n1cnc(-c2cnc3[nH]ccc3c2)c1 [Example 178, N-(3-(4-(1H-pyrrolo[2,3-b]pyrid-5-yl)-1H-imidazol-1-yl)-4-methylphenyl)-5-(tert-butyl)isoxazole-3-carboxamide]	300	140	–	3700
Cc1ccc(NC(=O)c2cccc(C(C)(C)C#N)c2)cc1-n1cc(-c2cncc(OC3COC3)c2)cn1 [Example 84, 3-(2-cyanoprop-2-yl)-N-(4-methyl-3-(4-(5-(oxetan-3-yloxy)pyrid-3-yl)-1H-pyrazol-1-yl)phenyl)benzamide]	130	99	< 0.3	8600
Cc1ccc(NC(=O)c2cccc(C(F)(F)F)c2)cc1-n1cc(-c2cncc(-c3cccnc3)c2)cn1 [Example 2, N-(3-(4-([3,3′-bipyridyl]-5-yl)-1H-pyrazol-1-yl)-4-methylphenyl)-3-(trifluoromethyl)benzamide]	48	36	–	1700
Cc1ccc(NC(=O)c2cccc(Cl)c2)cc1-n1cc(-c2cccnc2)cn1 [compound 2, 3-chloro-N-(4-methyl-3-(4-(pyrid-3-yl)-1H-pyrazol-1-yl)phenyl)benzamide, reference compound]	3300	1600	240	9300
Cc1ccc(NC(=O)c2cccc(C(C)(C)C#N)c2)cc1-n1cc(-c2cnccc2OC2CCOC2)cn1 (stereo not drawn) [Example 68, 3-(2-cyanoprop-2-yl)-N-(4-methyl-3-(4-(4-((tetrahydrofuran-3-yl)oxy)pyrid-3-yl)-1H-pyrazol-1-yl)phenyl)benzamide]	66	27	4.3	1800
